Measured values taken from PubChem BioAssay AID2374 (NMMLSC, 2010).

Molecular target: Cell division control protein 42 homolog (Homo sapiens) (UniProt P60953)
Assay: Cdc42 activation blockers via PAK binding – biochemical, purified His-Cdc42, PAK-PBD pull-down, Western blot, orthogonal assay for Ras-related GTPase inhibitor project, late-stage follow-up (AID 2374)
Conditions: His-Cdc42 GTPgS loading, at 10 µM, stronger effect = higher value

Chain of Cell division control protein 42 homolog (Homo sapiens) (P60953 whole entry, looked up): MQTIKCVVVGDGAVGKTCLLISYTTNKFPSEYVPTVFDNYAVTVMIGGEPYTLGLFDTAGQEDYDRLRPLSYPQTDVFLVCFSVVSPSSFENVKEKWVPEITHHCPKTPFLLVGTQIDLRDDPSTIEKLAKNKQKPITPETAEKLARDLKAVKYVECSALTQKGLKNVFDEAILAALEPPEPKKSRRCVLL

**Q.** With `COc1ccc(C2CC(c3ccccc3)=NN2c2ccc(S(N)(=O)=O)cc2)cc1` (stereo not drawn) as the compound, how does the inhibition (at 0.1 uM GTPgS) read?
**A.** The inhibition was 96%.

**Q.** And the inhibition (at 0.5 uM GTPgS)?
**A.** The inhibition was 94%.

**Q.** What about the inhibition of the same compound?
**A.** The inhibition was 60%.
